# Data published in patent publication US20210330696A1, “A HIGH CAPACITY PLATFORM FOR IMMUNOGENIC CANCER CELL DEATH” (priority 2018, published 2021).
# How the values were obtained:
# [1] = system: glioblastoma cells; details: 2 h after injection; cited from earlier work
# [2] = system: cancer cells; details: cited from earlier work
# [3] = system: DNA; details: cited from earlier work
# [4] = mouse, in vivo; cited from earlier work
# [5] = cited from earlier work
# [6] = system: tumor immunocytes; experiment: tumor immunocytes by flow cytometry after IL-12; type: in vivo; details: 24 h after treatment
# Source text: FIGS. 21A-B. Tumor immunocytes. A) Flow cytometry dot blots showing gating for myeloid and T cell populations. B) Percent immunocytes in control vs IL-12 treated tumors.
# Tumor phenotyping. Flow cytometry and immunohistochemistry are used to characterize PD-L1 expression and the presence of effector and regulatory T cells, myeloid and DC, vascularity and stromal cells in tumors and lymphatic tissue. Immunosuppressive regulators in the tumor include T regulatory (Treg) and […] (MDSC). Tregs (CD4^+/FoxP3^+) and MDSC [CD11b^+/Gr-1(Ly6-CIG)^+] suppress effective antitumor immune responses. CD4^+ and CD8^+ T cells are the primary adaptive immune cell mediators within the tumor and the proportion of T cell subsets and DC present in the tumor plays a critical role in tumor rejection. […] Single cell suspensions are prepared from tumors and spleen. After Fc receptor blockade with anti-CD16/CD32 antibodies in 1% mouse serum/1 mM EDTA, cells are permeabilized for intracellular staining or stained directly with antibodies identifying discrete immune cell populations, as described below. […] Specificity of binding to naïve or memory/effector cells is evaluated using fluorescent antibodies that recognize CD45RA, CCR7, and FOXP3. […] Apoptotic tumor cells are detected using DeadEnd Colorimetric TUNEL System, and proliferating cells will be identified using Ki-67. […]
# [7] = system: 4T1 tumor; experiment: 19F MRI of 4T1 tumor infiltration by myeloid cells (V-Sense); type: in vivo; details: 48 h post intratumoral injection, compared to PBS
# Procedure: FIG. 17. MR imaging of 4T1 tumor infiltration by myeloid cells. The perfluorocarbon emulsion V-Sense was injected intravascularly and carrier macrophages were imaged by 19F MRI 48 h post control or IL-12 intraturrioral injection.
# V-sense is a commercial ^19F-perfluorocarbon emulsion used to track macrophage infiltration into inflammatory tissues. Ahrens et al. (2011) successfully quantified V-sense in inflamed tissues of the central nervous system in an […] model of allergic encephalomyelitis, which they correlated with immunohistochemistry to confirm co-localization of V-sense emulsion droplets and macrophages. Hitchens et al. (2011) detected V-sense labeled macrophages in a model of cardiac allograft rejection. In FIG. 12, the ^19F contrast in tumors is shown based on infiltration of V-sense containing macrophages. In vitro fluorescent imaging confirmed V-sense (red) uptake by RAW macrophages (FIG. 15). […] The color spectrum indicates the concentration of V-sense, which is analogous to phagocytic myeloid cell density.
molecule,measurement,setting,value
"O=c1[nH]c(=O)n([C@@H]2O[C@H](CO)[C@@H](O)[C@@H]2F)cc1[124I] [^124I-FIAU, ^124I-2′-fluoro-2′-deoxy-5-iodo-1-beta-D-arabinofurariosyluracil]",increase in reporter expression,[1],28 fold
"N.N.[Cl][Pt][Cl] [cisplatin, cis-diamminedichloroplatinum (II)]",number of ICD hallmarks stimulated,[2],2
same,DNA adduct formation relative to oxaliplatin,[3],10 times
"COc1cccc2c1C(=O)c1c(O)c3c(c(O)c1C2=O)C[C@@](O)(C(=O)CO)C[C@@H]3O[C@H]1C[C@H](N)[C@H](O)[C@H](C)O1 [DOX, doxorubicin]",MTD,[4],6 mg/kg
same,IC50,[5],0.08 µg/mL
"IL-12: Proinflammatory Th1 cytokine interleukin-12 (protein, UniProt P29459 23-219; P29460 23-328, looked up) Interleukin-12 subunit alpha: RNLPVATPDPGMFPCLHHSQNLLRAVSNMLQKARQTLEFYPCTSEEIDHEDITKDKTSTVEACLPLELTKNESCLNSRETSFITNGSCLASRKTSFMMALCLSSIYEDLKMYQVEFKTMNAKLLMDPKRQIFLDQNMLAVIDELMQALNFNSETVPQKSSLEEPDFYKTKIKLCILLHAFRIRAVTIDRVMSYLNAS Interleukin-12 subunit beta: IWELKKDVYVVELDWYPDAPGEMVVLTCDTPEEDGITWTLDQSSEVLGSGKTLTIQVKEFGDAGQYTCHKGGEVLSHSLLLLHKKEDGIWSTDILKDQKEPKNKTFLRCEAKNYSGRFTCWWLTTISTDLTFSVKSSRGSSDPQGVTCGAATLSAERVRGDNKEYEYSVECQEDSACPAAEESLPIEVMVDAVHKLKYENYTSSFFIRDIIKPDPPKNLQLKPLKNSRQVEVSWEYPDTWSTPHSYFSLTFCVQVQGKSKREKKDRVFTDKTSATVICRKNASISVRAQDRYYSSSWSEWASVPCS",CD4+ and CD8+ T cells in the tumor,[6],increases CD4^+ and CD8^+ T cells
same,MDSC in the tumor,[6],decreases MDSC
same,frequency of phagocytic cells within the tumor periphery,[7],increased the frequency of phagocytic cells
